Patent US12607620B2, “Devices and systems for mimicking heart function” (UNIVERSITY OF CENTRAL FLORIDA RESEARCH FOUNDATION, INC., priority 2013, dated 2026)

Columns and labels:
human cardiomyocytes [1] = assay: Microelectrode array (MEA) recording of electrical activity of patterned human cardiomyocytes; type: cell-based
Description: The cardiac myocytes were cultured on patterned metal MEAs (planar 10 μm electrodes, 200 μm separation, Multichannel-systems). A 60 channel amplifier (MEA1040, Multichannel-systems) was used to record electrical activity from the spontaneously beating cardiac cells. The same electrodes were also used for stimulation utilizing a stimulus generator (STG 1002, Multichannel systems). The cells were stimulated utilizing 500 mV, 1 ms wide bipolar pulses at 2 Hz. The recording medium was the same as the plating medium with the pH adjusted to 7.3 using HEPES buffer. After a 30 minute incubation period, APs were detected and recorded using built in functions of the Multichannel System software. […] The data was further analyzed using software written using Matlab and Clampfit (Axon instruments). […] The cardiomyocytes used in these experiments were derived from differentiated adult induced pluripotent stem cells purchased from Cellular Dynamics. In FIG. 27 and FIG. 28, the electrical activity of the human cardiomyocytes plated on patterned MEAs was recorded following 12 days in vitro using a Multichannel Systems 60 channel amplifier (MEA 1040, Multichannel Systems). Prior to recording, the cells were allowed to equilibrate for 15 min in the lab atmosphere at 37° C. Temperature was maintained with a TC02 temperature controller (Multichannel Systems). The cells were stimulated using a STG 1002 stimulator (Multichannel Systems) by applying 1 ms wide bipolar square pulses of 500 mV every 500 ms. The recording medium was the same as the plating medium. […] Data are represented as percentage changes compared to the control and expressed as mean +/−SEM. In FIG. 29, electrical activity of the human cardiomyocytes plated on patterned MEAs was recorded following 12 days in vitro (DIV) using a Multichannel Systems 60 channel amplifier (MEA 1040, Multichannel Systems). Prior to recording, the cells were allowed to equilibrate for 15 min in the lab atmosphere at 37° C. Temperature was maintained with a TC02 temperature controller (Multichannel Systems). The cells were stimulated using a STG 1002 stimulator (Multichannel Systems) by applying 1 ms wide bipolar square pulses of 500 mV every 500 ms. The recording medium was the same as the plating medium. Sotalol (Sigma, cat#S0278) was added to the bathing medium in increasing concentrations of 0 μM, 10 μM, 30 μM, 100 μM, and 300 μM.

human cardiomyocytes [2] = assay: Cantilever contractile force measurement of human cardiomyocytes (AFM-like laser deflection detection); type: cell-based
Description: Spontaneous or electrical stimulation-evoked force generation of cardiac myocytes was measured based on optical detection or electrical detection of cantilever-bending. Optical detection of displacement of the end of the cantilever was based on the principle routinely used in atomic force microscopes (AFM) in which a laser beam was reflected from the cantilever to a sensor. The sensor detected the displacement of the laser beam caused by changes in the position of the cantilever. In this optical detection method, an automated electrical shutter was placed in the beam path. This placement minimized the exposure of the cells to the reflected laser light. Electrical detection of the displacement was based on piezoelectric principle that requires special design and materials for the fabrication of the cantilevers. Both detection methods enabled automation and high-throughput screening on myocyte contraction force. Peak contraction force and force-contraction velocity relationships were calculated based on the geometry of the cantilevers and the thickness of cultured cardiac myocytes (determined from immunostaining data). Compounds (such as norepinephrine, epinephrine, ouabain, verapamil, and sotalol) were applied using traditional methods to the medium and possible changes in force or force-velocity relationship were detected and analyzed using standard statistical methods.
A detection system similar to those used in atomic force microscope (AFM) system was designed for measuring deflection of the cantilevers during contraction. The entire system was assembled around an upright Olympus BX51WI electrophysiology microscope (Olympus Inc., Center Valley, PA). The detection system consisted of a class 2 red photodiode laser (Newport, Irvine, CA), a stimulation chamber, a 4-quadrant photodetector (Noah Industries, Melbourne, FL), and a computer with pClamp 10.0 data acquisition software (Molecular Devices, Union City, CA). The laser and photodetector (PD) were mounted on x-y-z-h translators (Newport, Irvine, CA), which were mounted on the underside of the microscope stage. The stimulation chamber was fabricated from 5 mm thick polycarbonate sheet. An approximately 15 mm×15 mm square chamber was milled out of the sheet and fitted with silver wires (0.015 inch diameter) for field stimulation. The silver wires were mounted parallel to each other with a separation of 15 mm. The bottom of the chamber was sealed using a 22 mm×22 mm glass coverslip. This created a transparent base through which the laser beam could easily pass. The silver wires were connected to an external pulse generator (A-M systems, Sequim, WA) capable of producing field stimulation pulses of varying intensity, frequency, and waveform. Both the pulse generator and PD were connected to an Axon Instruments series 1440 digitizer (Molecular Devices, Union City, CA) which was interfaced with the computer.
A detection system similar to that used in atomic force microscopy (AFM) was used in these experiments. Prior to recording, the cells were allowed to equilibrate for 15 min in the lab atmosphere at 37° C. Drugs were added cumulatively as follow: 0.1 μM, 0.3 μM, 1.0 μM, and 3.0 μM (norepinephrine); 0.1 μM, 1.0 μM, and 3.0 μM (epinephrine); 0.1 μM, 0.3 μM, 1.0 μM, and 3.0 μM (ouabain); and 0.3 μM, 1.0 μM, and 3.0 μM (verapamil). Washout was performed by rinsing the cells five (5) times with 1 mL of cell culture medium.

[3] = norepinephrine concentration range 0.1-3 μM, human cardiac myocytes
[4] = cardiomyocytes derived from human iPSCs cultured on cantilevers (FIG. 31D)
[5] = sotalol 0-300 μM in bathing medium, human cardiomyocytes on patterned MEAs, 12 DIV, change vs control (FIG. 29)

Structure (SMILES): NC[C@H](O)c1ccc(O)c(O)c1 [norepinephrine]
- QT interval (human cardiomyocytes [1]; [3]): decreased
- minimal ISI (analogue of QT interval) (human cardiomyocytes [1]; [3]): decreased
- spontaneous beating rate (human cardiomyocytes [1]; [3]): significantly increased
- contractile force (human cardiomyocytes [2]; [4]): increasing
- contractile frequency (human cardiomyocytes [2]; [4]): increasing
- peak contraction force (human cardiomyocytes [2]; norepinephrine concentration range 0.1-3 μM, human cardiac myocytes on cantilevers, 14 days in vitro (FIG. 30A)): increased

Structure (SMILES): CC(C)NCC(O)c1ccc(NS(C)(=O)=O)cc1 (centres unmarked) [sotalol]
- QT intervals (human cardiomyocytes [1]; [5]): significantly increased
- mISI (minimum interspike interval) (human cardiomyocytes [1]; [5]): significantly increased
- conduction velocity (human cardiomyocytes [1]; sotalol concentrations above 100 μM, human cardiomyocytes on patterned MEAs, 12 DIV): decreased

Structure (SMILES): COc1ccc(CCN(C)CCC[C@@](C#N)(c2ccc(OC)c(OC)c2)C(C)C)cc1OC [verapamil]
- peak force versus concentration (μM) (human cardiomyocytes [2]; human cardiomyocytes following administration of verapamil (FIG. 12C)): decrease
- contraction peak force (human cardiomyocytes [2]; verapamil 0.3, 1.0, 3.0 μM cumulative, human cardiomyocytes on cantilevers, 14 days in vitro (FIG. 30D)): concentration dependently decreased
